A word on the GI50: it is the concentration that inhibits growth by half. Broadly, the TGI is the concentration giving total growth inhibition.

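These data come from cells grown in 96-well plates and exposed to compound for 48 hours at five concentrations. GI50 is the concentration that inhibits growth by half. Definition used: TGI = concentration required for complete inhibition of growth.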

Some test systems named below: A549 NSCLC; HT29 colon; MOLT-4 leukemia; NCI-H23 lung; NCI-H460 lung; NCI/ADR-RES ovarian; RPMI-8226 leukemia; SK-MEL-2 melanoma; SR leukemia; UACC-257 melanoma.
Holding throughout (test): DTP human tumour cell line panel, 48 h

As to `CC(=O)OC1CC(O)C23COC(O)C1(C)C2CC(O)C1(C)C3C(=O)C(O)C2(C)C(c3ccoc3)CC3OC321` (stereo not drawn), the concentration for 50% growth inhibition (GI50) was 0.0674 µM in the experiment on A549 NSCLC; below 0.01 µM with HT29 colon; below 0.01 µM with MOLT-4 leukemia; below 0.0486 µM in the experiment on NCI-H460 lung; 71.9 µM in the experiment on NCI/ADR-RES ovarian; below 0.01 µM in the experiment on RPMI-8226 leukemia. Further, the values for the concentration for 50% growth inhibition (GI50) with SR leukemia and with UACC-257 melanoma were below 0.01 µM and 0.16 µM, respectively. Besides, the concentration for total growth inhibition (TGI) is above 100 µM in the experiment with A549 NSCLC; above 33.3 µM in the experiment on HT29 colon; 0.0127 µM in the experiment with MOLT-4 leukemia; above 100 µM in the experiment on NCI-H23 lung; above 100 µM with NCI-H460 lung; above 100 µM in the experiment on NCI/ADR-RES ovarian. For the same molecule, the TGI in the experiment with RPMI-8226 leukemia was 0.0237 µM; in the experiment with SK-MEL-2 melanoma, above 100 µM; in the experiment with SR leukemia, 0.0544 µM; in the experiment with UACC-257 melanoma, 5.51 µM.
Turning to `CC(C)c1ccc(C(=O)Nc2sc3c(c2C(N)=O)CCC(=O)C3)cc1`, the GI50 is 1.96 µM in the experiment on A549 NSCLC; 0.484 µM with HT29 colon; 0.461 µM with MOLT-4 leukemia; 0.381 µM in the experiment on NCI-H23 lung; 0.849 µM in the experiment on NCI-H460 lung; 0.975 µM in the experiment with NCI/ADR-RES ovarian. The concentration for 50% growth inhibition (GI50) in the experiment on RPMI-8226 leukemia was 0.127 µM; in the experiment with SK-MEL-2 melanoma, 2.16 µM; with SR leukemia it was 0.413 µM; in the experiment with UACC-257 melanoma, 2.05 µM. Further, the TGI in the experiment with A549 NSCLC is 13.2 µM; with HT29 colon it was 5.34 µM; in the experiment on MOLT-4 leukemia it was 3.17 µM; with NCI-H23 lung, 2.45 µM; in the experiment on NCI-H460 lung it was 3.73 µM; in the experiment with NCI/ADR-RES ovarian it was 5.57 µM. Moreover, the total growth inhibition concentration (TGI) with RPMI-8226 leukemia is 0.691 µM; in the experiment with SK-MEL-2 melanoma, 5.25 µM; with SR leukemia it was 11 µM; in the experiment on UACC-257 melanoma, 5.04 µM.
Consider `CCN(CC)c1sc(N(CC)CC)c2c1SSSSS2`, for which the GI50 in the experiment with A549 NSCLC is 1.84 µM; in the experiment with HT29 colon, 2.06 µM; in the experiment with MOLT-4 leukemia, 0.343 µM; in the experiment with NCI-H23 lung, 0.255 µM; with NCI-H460 lung, 2.48 µM; in the experiment with NCI/ADR-RES ovarian it was 0.89 µM. Also, the GI50 with RPMI-8226 leukemia was 0.366 µM; with SK-MEL-2 melanoma, 3.02 µM; in the experiment on SR leukemia, 0.267 µM; in the experiment with UACC-257 melanoma it was 1.79 µM. The TGI in the experiment on A549 NSCLC was 3.64 µM; with HT29 colon, 5.2 µM; in the experiment with MOLT-4 leukemia, above 100 µM; with NCI-H23 lung, 0.674 µM; in the experiment with NCI-H460 lung, 6.02 µM; in the experiment on NCI/ADR-RES ovarian it was 2.53 µM. Besides, the concentration for total growth inhibition (TGI) with RPMI-8226 leukemia was determined as 1.36 µM; in the experiment with SK-MEL-2 melanoma it was 14.6 µM; with SR leukemia, 0.998 µM; in the experiment on UACC-257 melanoma it was 4.08 µM.
In the case of `CCN(CC)c1ccc(C(=N)c2ccc(N(CC)CC)cc2)cc1`, the GI50 was 0.625 µM with A549 NSCLC; 0.319 µM in the experiment on HT29 colon; 0.594 µM in the experiment on MOLT-4 leukemia; 0.26 µM with NCI-H23 lung; 0.411 µM in the experiment with NCI-H460 lung; 0.412 µM in the experiment with NCI/ADR-RES ovarian. The GI50 was 0.358 µM in the experiment on RPMI-8226 leukemia, 0.423 µM in the experiment with SK-MEL-2 melanoma, 0.28 µM in the experiment with SR leukemia and 0.744 µM in the experiment with UACC-257 melanoma. Moreover, the TGI in the experiment on A549 NSCLC stood at 5.94 µM; in the experiment with HT29 colon, 2.83 µM; with MOLT-4 leukemia it was 4.36 µM; in the experiment on NCI-H23 lung, 0.925 µM; in the experiment on NCI-H460 lung it was 1.56 µM; with NCI/ADR-RES ovarian, 1.83 µM. The TGI in the experiment with RPMI-8226 leukemia is 2.42 µM; in the experiment with SK-MEL-2 melanoma, 1.52 µM; in the experiment with SR leukemia it was 1.2 µM; in the experiment on UACC-257 melanoma it was 2.25 µM.
For `CCS(=O)(=O)c1ccc(OC)c(Nc2ncc(-c3cccc(C(C)=O)c3)o2)c1`, the GI50 in the experiment with A549 NSCLC, in the experiment with HT29 colon, in the experiment on MOLT-4 leukemia, in the experiment on NCI-H23 lung, with NCI-H460 lung and with NCI/ADR-RES ovarian was above 25 µM throughout. Besides, the GI50 was above 25 µM with RPMI-8226 leukemia, above 25 µM in the experiment with SK-MEL-2 melanoma, 15.6 µM with SR leukemia and above 25 µM in the experiment on UACC-257 melanoma. For the same molecule, the TGI in the experiment with A549 NSCLC, with HT29 colon, with MOLT-4 leukemia, in the experiment on NCI-H23 lung, with NCI-H460 lung and with NCI/ADR-RES ovarian was above 25 µM in each case. Moreover, the TGI in the experiment on RPMI-8226 leukemia, in the experiment with SK-MEL-2 melanoma, in the experiment with SR leukemia and in the experiment with UACC-257 melanoma was above 25 µM throughout.
For `CN/N=C(/CCN1CCCC1)CC(c1ccccc1)c1c(O)c2ccccc2oc1=O` (stereo not drawn), the TGI in the experiment with A549 NSCLC, in the experiment on HT29 colon, with MOLT-4 leukemia, in the experiment with NCI-H23 lung, with NCI-H460 lung and in the experiment with NCI/ADR-RES ovarian was above 100 µM each time. In addition, the total growth inhibition concentration (TGI) in the experiment with RPMI-8226 leukemia is above 31.6 µM; in the experiment on SK-MEL-2 melanoma, above 100 µM; in the experiment on SR leukemia, above 100 µM; with UACC-257 melanoma, above 100 µM.
